From patent US8143275B2, “Use of triazolopyrimidine derivatives as microbicides” (LANXESS Deutschland GmbH, priority 2001, dated 2012)

Assays:
Assay in all cases: Inhibitory test with giant colonies of Basidiomycetes
Type in all cases: cell-based
Conditions in all cases: 6 ppm active compound in agar medium, 26° C., compared to medium without active compound
Coriolus versicolor (P5) = tested on: Coriolus versicolor (P5)
Protocol: (§1) Inhibitory test with giant colonies of Basidiomycetes
(§2) Mycelium pieces were punched out of colonies of Gloeophyllum trabeum (P1), Coniophora puteana (P2), Poria placenta (P3), Lentinus tigrinus (P4), Coriolus versicolor (P5) and Sterum sanguinolentum (P6) and incubated at 26° C. on an agar medium. The inhibition of the growth of the fungal threads on the active-compound-containing medium (concentration of active compound: 6 ppm) was compared to the longitudinal growth of medium without added active compound and rated in inhibition percent.

Coniophora puteana (P2) = tested on: Coniophora puteana (P2)
Protocol: as §1, §2

[1] = tested on: Gloeophyllum trabeum (P1)
Protocol: as §1, §2

Lentinus tigrinus (P4) = tested on: Lentinus tigrinus (P4)
Protocol: as §1, §2

[2] = tested on: Sterum sanguinolentum (P6)
Protocol: as §1, §2

Poria placenta (P3) = tested on: Poria placenta (P3)
Protocol: as §1, §2

Fc1cccc(-c2c(Cl)nc3ncnn3c2NC2CCCC2)c1 [No 1]
P5: inhibition of the growth of the fungal threads (Coriolus versicolor (P5)): 91%
P2: inhibition of the growth of the fungal threads (Coniophora puteana (P2)): 100%
P1: inhibition of the growth of the fungal threads [1]: 80%

Clc1ccccc1-c1c(Cl)nc2ncnn2c1NC1CCCC1 [No 2]
P4: inhibition of the growth of the fungal threads (Lentinus tigrinus (P4)): 94%
P5: inhibition of the growth of the fungal threads (Coriolus versicolor (P5)): 100%
P2: inhibition of the growth of the fungal threads (Coniophora puteana (P2)): 100%
P1: inhibition of the growth of the fungal threads [1]: 100%
P6: inhibition of the growth of the fungal threads [2]: 100%

Fc1cccc(F)c1-c1c(Cl)nc2ncnn2c1NC1CCCC1 [No 3]
P4: inhibition of the growth of the fungal threads (Lentinus tigrinus (P4)): 100%
P5: inhibition of the growth of the fungal threads (Coriolus versicolor (P5)): 100%
P2: inhibition of the growth of the fungal threads (Coniophora puteana (P2)): 100%
P1: inhibition of the growth of the fungal threads [1]: 100%
P6: inhibition of the growth of the fungal threads [2]: 100%

Fc1cc(F)c(-c2c(Cl)nc3ncnn3c2NC2CCCC2)c(F)c1 [No 4]
P5: inhibition of the growth of the fungal threads (Coriolus versicolor (P5)): 100%

Clc1nc2ncnn2c(NC2CCCC2)c1-c1ccccc1 [No 5]
P5: inhibition of the growth of the fungal threads (Coriolus versicolor (P5)): 100%

CC(C)Nc1c(-c2ccc(Cl)cc2Cl)c(Cl)nc2ncnn12 [No 6]
P5: inhibition of the growth of the fungal threads (Coriolus versicolor (P5)): 95%
P2: inhibition of the growth of the fungal threads (Coniophora puteana (P2)): 100%
P1: inhibition of the growth of the fungal threads [1]: 95%
P6: inhibition of the growth of the fungal threads [2]: 100%

Fc1ccccc1-c1c(Cl)nc2ncnn2c1N1CCCCCC1 [No 7]
P4: inhibition of the growth of the fungal threads (Lentinus tigrinus (P4)): 94%
P5: inhibition of the growth of the fungal threads (Coriolus versicolor (P5)): 100%
P2: inhibition of the growth of the fungal threads (Coniophora puteana (P2)): 100%
P1: inhibition of the growth of the fungal threads [1]: 100%
P6: inhibition of the growth of the fungal threads [2]: 100%

Fc1cccc(F)c1-c1c(Cl)nc2ncnn2c1N1CCCCCC1 [No 8]
P4: inhibition of the growth of the fungal threads (Lentinus tigrinus (P4)): 100%
P5: inhibition of the growth of the fungal threads (Coriolus versicolor (P5)): 100%
P3: inhibition of the growth of the fungal threads (Poria placenta (P3)): 100%
P2: inhibition of the growth of the fungal threads (Coniophora puteana (P2)): 100%
P1: inhibition of the growth of the fungal threads [1]: 100%
P6: inhibition of the growth of the fungal threads [2]: 100%

CC1CCN(c2c(-c3c(F)cc(F)cc3F)c(Cl)nc3ncnn23)CC1 [No 9]
P4: inhibition of the growth of the fungal threads (Lentinus tigrinus (P4)): 100%
P5: inhibition of the growth of the fungal threads (Coriolus versicolor (P5)): 100%
P3: inhibition of the growth of the fungal threads (Poria placenta (P3)): 100%
P2: inhibition of the growth of the fungal threads (Coniophora puteana (P2)): 100%
P1: inhibition of the growth of the fungal threads [1]: 100%
P6: inhibition of the growth of the fungal threads [2]: 100%

CC1CCN(c2c(-c3c(F)cccc3Cl)c(Cl)nc3ncnn23)CC1 [No 10]
P4: inhibition of the growth of the fungal threads (Lentinus tigrinus (P4)): 100%
P5: inhibition of the growth of the fungal threads (Coriolus versicolor (P5)): 100%
P3: inhibition of the growth of the fungal threads (Poria placenta (P3)): 100%
P2: inhibition of the growth of the fungal threads (Coniophora puteana (P2)): 100%
P1: inhibition of the growth of the fungal threads [1]: 100%
P6: inhibition of the growth of the fungal threads [2]: 100%

C[C@H](Nc1c(-c2c(F)cc(F)cc2F)c(Cl)nc2ncnn12)C(F)(F)F [No 11]
P4: inhibition of the growth of the fungal threads (Lentinus tigrinus (P4)): 100%
P5: inhibition of the growth of the fungal threads (Coriolus versicolor (P5)): 100%
P3: inhibition of the growth of the fungal threads (Poria placenta (P3)): 100%
P2: inhibition of the growth of the fungal threads (Coniophora puteana (P2)): 100%
P1: inhibition of the growth of the fungal threads [1]: 100%
P6: inhibition of the growth of the fungal threads [2]: 100%
